Experimental data reported in PubChem BioAssay (NCI).
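How tested: cells in 96-well plates exposed to compound for 48 hours at five concentrations. TGI: concentration producing complete growth inhibition.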

Key:
Test in all cases: NCI tumour cell line growth inhibition, 48 h
[1] = test system: SF-295 CNS
[2] = test system: UO-31 renal
[3] = test system: CCRF-CEM leukemia
[4] = test system: NCI-H226 lung
[5] = test system: HOP-62 NSCLC
[6] = test system: PC-3 prostate
[7] = test system: OVCAR-8 ovarian
[8] = test system: SK-MEL-5 melanoma
[9] = test system: RPMI-8226 leukemia
[10] = test system: 786-0 renal
[11] = test system: HS 578T breast
[12] = test system: RXF 393 renal
[13] = test system: NCI-H23 lung
[14] = test system: SNB-75 CNS
[15] = test system: A549 NSCLC

Structure (SMILES) | TGI [1] [µM] | TGI [2] [µM] | TGI [3] [µM] | TGI [4] [µM] | TGI [5] [µM] | TGI [6] [µM] | TGI [7] [µM] | TGI [8] [µM] | TGI [9] [µM] | TGI [10] [µM] | TGI [11] [µM] | TGI [12] [µM] | TGI [13] [µM] | TGI [14] [µM] | TGI [15] [µM]
COC(=O)[C@H](C)NC(=O)C1(CNC(=O)[C@H](C)NC(=O)OC(C)(C)C)Cc2ccccc2-c2ccccc2C1 | 51.6 | 11.6 | 43.9 | 61.5 | > 100 | > 75.4 | 18.2 | > 55 | 23.9 | 36.4 | > 60.1 | > 88.9 | 37.8 | > 60.2 | 48.8
O=S(=O)(O)c1ccc(Nc2ccnc3ccccc23)cc1 | > 100 | > 100 | > 100 | > 100 | > 100 | > 100 | > 100 | > 100 | > 100 | > 100 | > 100 | > 100 | > 100 | > 100 | > 100
O=C(NNC(=S)Nc1ccc(Cl)cc1)C12CC3CC(CC(C3)C1)C2 | 26.6 | 19 | 11.6 | 31.6 | 29.7 | 19.2 | > 44.6 | 15.5 | 2.28 | > 58 | 83 | 48.6 | 54.7 | 51.1 | 24.9
C=C[C@]1(C)CC(=O)C(C(C)C=O)[C@]12C(=O)Oc1cccc(C)c1C2=O (stereo not given in full) | 28.9 | 28.9 | 17.6 | 35 | 35.9 | 26.3 | 31.5 | 25.9 | > 100 | 30 | 42.7 | 27.6 | 33.2 | 30.8 | 44.4
CCCCCCCCCC(=O)NCCc1c[nH]c2ccc(OC)cc12 | 32 | 26.1 | 37.5 | 42.1 | 31.1 | 28.9 | 32 | 34.3 | 67 | 38.7 | 42.8 | 38 | 31.6 | 44 | 40.1
Cc1ccc(N=NN(C)C(C)C(O)Cc2ccccc2)cc1 (stereo not given) | > 100 | > 100 | > 100 | > 100 | > 100 | > 100 | > 100 | > 100 | > 100 | > 100 | > 100 | > 100 | > 100 | > 100 | > 100
CC1(c2nc3ccccc3[nH]2)CCC(C#N)C(C)(C)O1 (stereo not given) | > 100 | > 100 | > 100 | > 100 | > 100 | > 100 | > 100 | > 100 | > 100 | > 100 | > 100 | > 100 | > 100 | > 100 | > 100
O=C1CNc2cc(N3CCOCC3)ccc2N1 | > 100 | > 100 | > 100 | > 100 | > 100 | > 100 | > 100 | > 100 | > 100 | > 100 | > 100 | > 100 | > 100 | > 100 | > 100
O=C(O)C1CC(C2CCCCN2)CN2CCCCC12 (stereo not given) | > 100 | > 100 | > 100 | > 100 | > 100 | > 100 | > 100 | > 100 | > 100 | > 100 | > 100 | > 100 | > 100 | > 100 | > 100
